Experimental findings from patent US20220387358A1, “CERAMIDE ANALOG SACLAC MODULATES SPHINGOLIPID LEVELS AND MCL-1 SPLICING TO INDUCE APOPTOSIS IN ACUTE MYELOID LEUKEMIA” (University of Virginia Patent Foundation, priority 2019, published 2022) are described below.

Where two headings read alike, the source gives them in different places.

For data set [1], the system named is 30 human AML cell lines. The experiment in a line: Cell viability MTS assay, panel of cell lines. It is filed as cell-based. The following applies: 24 and 48-hour time points. The protocol:
For cell viability, cell lines were plated at 2.5×10^4 cells per well in a 96-well plate and treated with […] or DMSO vehicle (0.4% of total volume) for the indicated time points and doses. At the experiment end point, 3-(4,5-Dimethylthiazol-2-yl)-5-(3-carboxymethoxyphenyl)-2-(4-sulfophenyl)-2H-tetrazolium (MTS) Cell Proliferation Colorimetric Assay Kit (# K300-5000, BioVision, Inc., Milpitas, Calif., United States of America) reagent was added and incubated for 2 hours. Conversion of MTS to formazan product was measured by absorbance at 490 nm using a BioTek Cytation 3 plate reader (BioTeck, Winooski, Vt., United States of America). Absorbance was normalized to DMSO control, which was defined as 100% viability. Due to limited cell numbers, patient samples and normal samples were plated at 5×10^3 cells per well in a 384-well plate with […] or DMSO control for the indicated time points and doses. At the experiment end point, a luminescent reagent sold under the tradename [sequence]-GLOTM (#G7572, Promega Corporation, Madison, Wis., United States of America) was added. After 15 minutes, luminescence was read on a BioTek Cytation 3 plate reader (BioTek, Winooski, Vt., United States of America). Absorbance was normalized to DMSO control, which was defined as 100% viability.
A general note: Formazan colour is commonly taken as a measure of viable cells.

Data set [2] can be described thus: Solubility in vehicles for i.v. drug delivery. Format: physicochemical.
Data set [3] concerns MCL-1S transcript in OCI-AML2 cells. The experiment in a line: RT-qPCR of MCL-1S transcript. Particulars: 5 μM SACLAC; 6 hours. Format: cell-based, human. How it is done: Cells were seeded at 2.5×10^5 cells per ml in 6-well plates and treated with DMSO or SACLAC for six hours. Cells were harvested and resuspended in TRIzol reagent (#15596026, Invitrogen, Carlsbad, Calif., United States of America). RNA was isolated using Direct-zol RNA Miniprep Plus (#R2072, Zymo Research, Irvine, Calif., United States of America) according to the manufacturer's protocol. RNA was quantified using the Take3 microplate and the pre-programmed RNA quantification protocol on the Gen5 software for the Cytation 3 plate reader (BioTek, Winooski, Vt., United States of America). DNase treatment and reverse transcription were done using the iScript gDNA Clear cDNA Synthesis Kit (#1725035, Bio-Rad Laboratories, Hercules, Calif., United States of America) in accordance with the manufacturer's protocol. The qPCR reaction contained iTaq Universal SYBR Green (#1725122, Bio-Rad Laboratories, Hercules, Calif., United States of America), 140 ng cDNA and primers specific for HPRT (#100-25636, Bio-Rad Laboratories, Hercules, Calif., United States of America), B2M (#100-25636, Bio-Rad Laboratories, Hercules, Calif., United States of America) and MCL-1S (Eurofins (Luxembourg); forward, 5′-[…]-3′ (SEQ ID NO: 1) and reverse, 5′-[…]-3′ (SEQ ID NO: 2)) (38). This primer pair specifically amplifies Mcl-1 transcript variant 2 (MCL-1S) according to BLAST analysis. […]
In general terms: Real-time PCR tracks product formation cycle by cycle.

What is called EC50 is the midpoint of the concentration-response curve.

For the molecule `CCCCCCCCCCCCCCC[C@@H](O)[C@H](CO)NC(=O)CCl` [SACLAC, N-[(2S,3R)-1,3-dihydroxyoctadecan-2-yl]2-chloroacetamide], the EC50 in data set [1] (read-out: average EC50 across 30 human AML cell lines) is 3.2 µM; in data set [1] (Homo sapiens, 48 h, read-out: average EC50 across 30 human AML cell lines), approximately 3 µM; in data set [1] (Homo sapiens, 48 h, read-out: EC50 of 25 of 30 cell lines, 25 of 30 cell lines), less than 5 µM. In addition, the “solubility in vehicles for i.v. drug delivery” value in data set [2] is listed as “low solubility”. Further, the MCL-1S transcript level result in data set [3] is listed as “Increased”.
